{
  "source": "patent US10485808B2",
  "about": "“Selective progesterone receptor modulators (SPRM) and stabilized estrogen level in patient” (BAYER PHARMA AKTIENGESELLSCHAFT, priority 2017, dated 2019)",
  "system": "healthy women of reproductive age",
  "experiment": "Study 15818: estradiol (E2) serum concentration after daily oral Compound 1",
  "assay_type": "in vivo, human",
  "experimental": "Example 2: Circulating Endogenous Estrogen Concentrations in Healthy Women of Reproductive Age Receiving Compound 1 (Cp1)\nStudy protocol (N^o 15818): A randomized, double-blind, parallel-group, multi-center study to investigate the pharmacodynamics, pharmacokinetics and safety after daily oral administration of 4 different doses of Compound 1 in healthy women of reproductive age\nDoses: 0.5 mg, 1 mg, 2 mg, or 4 mg once daily\nRoute of administration: Oral\nDuration of treatment: 1×12 weeks (84 days)\n• Age: 18-40 years • Smoking ≤10 cigarettes/day • Body mass index ≥18 and ≤32 kg/m^2 • Signed informed consent prior to study participation • No contraindication for intake of Compound 1 • Ovulation in pre-treatment cycle • Use of non-hormonal contraception during the study. Number of Subjects: see Table 1 for the number of subjects per Dosage Measurement of primary variable Estradiol: The estradiol (E2) serum concentration was assessed for each subject at the following Visit Days of the study, see FIG. 1 • Pre-treatment Day 9 (D9) corresponds to the period before start of Compound 1 uptake; the pre-treatment cycle starts on the first day of the subject waking up with menstrual bleeding with intensity more than spotting after screening examinations have shown that the subject is eligible for further participation. The pre-treatment period ends by the starting of next menstrual bleeding; • Treatment Day (D84) corresponds to last intake of Compound 1. The treatment phase started with the first and ended with the last intake of the study drug. The subjects have to start the intake of Compound 1 during the first week of the menstrual cycle after the pre-treatment cycle until the last Treatment Day (D84). • The follow-up cycle 1 started on the first day without study drug intake and will end in case of start of menstrual bleeding (i.e. when the subject is waking up with menstrual bleeding with intensity more than spotting). The first day of menstrual bleeding will define the start of follow-up cycle 2. Follow-up cycle 2 ended when the subjects report the next menstrual bleeding (i.e. first day of waking up with menstrual bleeding with intensity more than spotting).\nDuring pre-treatment, end of treatment and at Follow-up Cycle 2, Estradiol (E2) serum concentrations are measured.\nEligible subjects were randomized to one of the treatment groups (0.5 mg, 1 mg, 2 mg, or 4 mg Compound 1). The treatment period consisted of 12 weeks (84 days) of daily tablet intake.",
  "key": {"[1]": {"details": "Cp1 0.5 mg once daily oral, Follow-up cycle2 D 9"}, "[2]": {"details": "Cp1 0.5 mg once daily oral, Pre-treatment D 9"}, "[3]": {"details": "Cp1 0.5 mg once daily oral, Treatment D 84"}, "[4]": {"details": "Cp1 1 mg once daily oral, Follow-up cycle2 D 9"}, "[5]": {"details": "Cp1 1 mg once daily oral, Pre-treatment D 9"}, "[6]": {"details": "Cp1 1 mg once daily oral, Treatment D 84"}, "[7]": {"details": "Cp1 2 mg once daily oral, Follow-up cycle2 D 9"}, "[8]": {"details": "Cp1 2 mg once daily oral, Pre-treatment D 9"}, "[9]": {"details": "Cp1 2 mg once daily oral, Treatment D 84"}, "[10]": {"details": "Cp1 4 mg once daily oral, Follow-up cycle2 D 9"}, "[11]": {"details": "Cp1 4 mg once daily oral, Pre-treatment D 9"}, "[12]": {"details": "Cp1 4 mg once daily oral, Treatment D 84"}},
  "data": [
    {"compound": "C[C@]12C[C@H](c3ccc(S(C)(=O)=O)cc3)C3=C4CCC(=O)C=C4CC[C@H]3[C@@H]1CC[C@@]2(O)C(F)(F)C(F)(F)F", "note": "[Compound 1, (11β,17β)-17-Hydroxy-11-[4-(methylsulphonyl)phenyl]-17-(pentafluoroethyl)estra-4,9-dien-3-one]", "values": [
      {"measurement": "Change of estradiol (E2) concentrations during treatment", "setting": "0.5-4 mg once daily, 12 weeks", "value": "slight decrease"},
      {"measurement": "Estradiol concentrations in serum, Max", "setting": "[1]", "value": 262, "unit": "pg/mL"},
      {"measurement": "Estradiol concentrations in serum, Mean", "setting": "[1]", "value": 116.1, "unit": "pg/mL"},
      {"measurement": "Estradiol concentrations in serum, Median", "setting": "[1]", "value": 79.9, "unit": "pg/mL"},
      {"measurement": "Estradiol concentrations in serum, Min", "setting": "[1]", "value": 17, "unit": "pg/mL"},
      {"measurement": "Estradiol concentrations in serum, Max", "setting": "[2]", "value": 381, "unit": "pg/mL"},
      {"measurement": "Estradiol concentrations in serum, Mean", "setting": "[2]", "value": 138, "unit": "pg/mL"},
      {"measurement": "Estradiol concentrations in serum, Median", "setting": "[2]", "value": 104.5, "unit": "pg/mL"},
      {"measurement": "Estradiol concentrations in serum, Min", "setting": "[2]", "value": 14, "unit": "pg/mL"},
      {"measurement": "Estradiol concentrations in serum, Max", "setting": "[3]", "value": 423, "unit": "pg/mL"},
      {"measurement": "Estradiol concentrations in serum, Mean", "setting": "[3]", "value": 135.6, "unit": "pg/mL"},
      {"measurement": "Estradiol concentrations in serum, Median", "setting": "[3]", "value": "about 80 pg/mL"},
      {"measurement": "Estradiol concentrations in serum, Min", "setting": "[3]", "value": 23, "unit": "pg/mL"},
      {"measurement": "Estradiol concentrations in serum, Median", "setting": "Cp1 0.5 mg once daily oral, Treatment D 84, listed as Cp1", "value": 82, "unit": "pg/mL"},
      {"measurement": "Estradiol concentrations in serum, Max", "setting": "[4]", "value": 305, "unit": "pg/mL"},
      {"measurement": "Estradiol concentrations in serum, Mean", "setting": "[4]", "value": 143.8, "unit": "pg/mL"},
      {"measurement": "Estradiol concentrations in serum, Median", "setting": "[4]", "value": 119.2, "unit": "pg/mL"},
      {"measurement": "Estradiol concentrations in serum, Min", "setting": "[4]", "value": 39, "unit": "pg/mL"},
      {"measurement": "Estradiol concentrations in serum, Max", "setting": "[5]", "value": 311, "unit": "pg/mL"},
      {"measurement": "Estradiol concentrations in serum, Mean", "setting": "[5]", "value": 143.3, "unit": "pg/mL"},
      {"measurement": "Estradiol concentrations in serum, Median", "setting": "[5]", "value": 92.3, "unit": "pg/mL"},
      {"measurement": "Estradiol concentrations in serum, Min", "setting": "[5]", "value": 39, "unit": "pg/mL"},
      {"measurement": "Estradiol concentrations in serum, Max", "setting": "[6]", "value": 276, "unit": "pg/mL"},
      {"measurement": "Estradiol concentrations in serum, Mean", "setting": "[6]", "value": 119.4, "unit": "pg/mL"},
      {"measurement": "Estradiol concentrations in serum, Median", "setting": "[6]", "value": "about 80 pg/mL"},
      {"measurement": "Estradiol concentrations in serum, Min", "setting": "[6]", "value": 42, "unit": "pg/mL"},
      {"measurement": "Estradiol concentrations in serum, Median", "setting": "Cp1 1 mg once daily oral, Treatment D 84, listed as Cp1", "value": 81.5, "unit": "pg/mL"},
      {"measurement": "Estradiol concentrations in serum, Max", "setting": "[7]", "value": 395, "unit": "pg/mL"},
      {"measurement": "Estradiol concentrations in serum, Mean", "setting": "[7]", "value": 123.9, "unit": "pg/mL"},
      {"measurement": "Estradiol concentrations in serum, Median", "setting": "[7]", "value": 80.9, "unit": "pg/mL"},
      {"measurement": "Estradiol concentrations in serum, Min", "setting": "[7]", "value": 33, "unit": "pg/mL"},
      {"measurement": "Estradiol concentrations in serum, Max", "setting": "[8]", "value": 308, "unit": "pg/mL"},
      {"measurement": "Estradiol concentrations in serum, Mean", "setting": "[8]", "value": 113.5, "unit": "pg/mL"},
      {"measurement": "Estradiol concentrations in serum, Median", "setting": "[8]", "value": 82.2, "unit": "pg/mL"},
      {"measurement": "Estradiol concentrations in serum, Min", "setting": "[8]", "value": 33, "unit": "pg/mL"},
      {"measurement": "Estradiol concentrations in serum, Max", "setting": "[9]", "value": 330, "unit": "pg/mL"},
      {"measurement": "Estradiol concentrations in serum, Mean", "setting": "[9]", "value": 91.2, "unit": "pg/mL"},
      {"measurement": "Estradiol concentrations in serum, Median", "setting": "[9]", "value": "about 80 pg/mL"},
      {"measurement": "Estradiol concentrations in serum, Min", "setting": "[9]", "value": 34, "unit": "pg/mL"},
      {"measurement": "Estradiol concentrations in serum, Median", "setting": "Cp1 2 mg once daily oral, Treatment D 84, listed as Cp1", "value": 78.5, "unit": "pg/mL"},
      {"measurement": "Estradiol concentrations in serum, Max", "setting": "[10]", "value": 279, "unit": "pg/mL"},
      {"measurement": "Estradiol concentrations in serum, Mean", "setting": "[10]", "value": 109.9, "unit": "pg/mL"},
      {"measurement": "Estradiol concentrations in serum, Median", "setting": "[10]", "value": 88.7, "unit": "pg/mL"},
      {"measurement": "Estradiol concentrations in serum, Min", "setting": "[10]", "value": 41, "unit": "pg/mL"},
      {"measurement": "Estradiol concentrations in serum, Max", "setting": "[11]", "value": 200, "unit": "pg/mL"},
      {"measurement": "Estradiol concentrations in serum, Mean", "setting": "[11]", "value": 126.4, "unit": "pg/mL"},
      {"measurement": "Estradiol concentrations in serum, Median", "setting": "[11]", "value": 122.9, "unit": "pg/mL"},
      {"measurement": "Estradiol concentrations in serum, Min", "setting": "[11]", "value": 44, "unit": "pg/mL"},
      {"measurement": "Estradiol concentrations in serum, Max", "setting": "[12]", "value": 81, "unit": "pg/mL"},
      {"measurement": "Estradiol concentrations in serum, Mean", "setting": "[12]", "value": 53.9, "unit": "pg/mL"},
      {"measurement": "Estradiol concentrations in serum, Median", "setting": "[12]", "value": "about 50 pg/mL"},
      {"measurement": "Estradiol concentrations in serum, Min", "setting": "[12]", "value": 39, "unit": "pg/mL"},
      {"measurement": "Estradiol concentrations in serum, Median", "setting": "Cp1 4 mg once daily oral, Treatment D 84, listed as Cp1", "value": 50.5, "unit": "pg/mL"},
      {"measurement": "Reversibility of estradiol (E2) decrease after end of treatment", "setting": "pre-treatment vs follow-up Cycle 2", "value": "completely reversible"}
    ]}
  ]
}
